Paper PMC12655637, “Design, Synthesis, and Mechanistic Study of Novel Ciprofloxacin/Thiazole Chalcone Hybrids as Potential Anticancer Agents” (Pharmaceuticals, 2025)
“And” between values parts separate entries of the source, which are not always exact repeats. Identical values can stand only once.

Legend:
[1] = test system: leukemia HL-60, RPMI-8226, and colon HCT-116 cells; test: Antiproliferative activity, IC50 range over three cell lines; type: cell-based; conditions: Homo sapiens; range over HL-60, RPMI-8226 and HCT-116
[2] = In vitro cytotoxicity against normal cell line WI 38; type: cell-based; conditions: human, WI-38 normal cell line; for viability at 0.4 µM: WI38, 0.4uM; for viability at 1.6 µM: WI38, 1.6uM; for viability at 6.3 µM: WI38, 6.3uM; for viability at 25 µM: WI38, 25uM; for viability at 100 µM: WI38, 100uM; for IC50: ± SEM
Excerpt: Detailed results of cytotoxicity of compounds 4b and 4d against normal cell
Blank CC Sample No. 4b/WI38 sample no. 4d/WI38
conc. viability conc. viability

colon HCT116 cells = test: Annexin V-FITC/PI apoptosis and necrosis assay; type: cell-based, human; conditions: HCT116 treated with IC50 concentration; for Apoptosis Late: DMSO 0.15%; for Apoptosis Early: DMSO 0.39%; for Apoptosis Total: DMSO 0.54%; for Necrosis: DMSO 1.83%
UO-31 = test: NCI-60 screening, five-dose, SRB; type: cell-based, human; conditions: for GI50 / IC50 / LC50 (concentration killing 50% of cells): Homo sapiens
[3] = test system: Non-Small-Cell Lung Cancer cell lines; test: NCI five-dose testing, subpanel (MID b, selectivity); conditions: for SI: full-panel MG-MID / subpanel MG-MID, Non-Small-Cell Lung Cancer; for MG-MID: mean activity across subpanel Non-Small-Cell Lung Cancer
Excerpt: (§1) The log10 GI50, log10 TGI, and log10 LC50 values were subsequently calculated as the averages of the log10 values of the respective individual GI50, TGI, and LC50 measurements. Negative numbers signified the most sensitive cell lines.
(§2) One way to measure a compound’s selectivity is to divide its subpanel MID^b (in μM) by the MID^a (in μM), which is the average sensitivity of all cell lines to the test agent.
(§3) At the National Cancer Institute (NCI) in Bethesda, USA, researchers examined the anticancer potential of the target compounds under investigation using nine panels of sixty different cell lines obtained from nine different cancers that were housed in the NCI library. […] The anticancer screening was carried out at a single dose of 10^−5 M; the results obtained were expressed as growth inhibition (%).
(§4) The anti-cancer potential of the tested compounds was evaluated at the National cancer institute (NCI), Bethesda, USA, against 9 panels of 60 various cell lines derived from nine human tumours available usually at NCI library. […] The anticancer screening was carried out at single dose of 10^-5 M. The results obtained as growth inhibition (%).
(§5) Cell lines were grown in Roswell Park Memorial Institute medium (RPMI) with 5% fetal bovine serum and 2% μM L-glutamine. Cancer cells are inoculated into 96 well microtiter plates in 100 μL at plating densities ranging from 5000 to 40,000 cells/well depending on the doubling time of individual cell lines. Then microtiter plates are incubated at 37 °C, 5% CO2, 95% air and 100% relative humidity for 24 h prior to the addition of the tested compounds. After 24 h, two plates of each cell line are fixed in situ with trichloroacetic acid (TCA). The tested compounds were dissolved in dimethyl sulfoxide (DMSO) and stored in the freezer prior to use. An aliquot of frozen drug concentrate is diluted to the desired concentration with complete medium containing 50 μg/mL gentamicin.
(§6) compounds were added to the microtiter plates followed by incubation for further 48 h at 37 °C, 5% CO2, 95% air and 100% relative humidity. Fixation of cancer cell lines is carried out through gentle addition of 50 μL of cold 50 %w/v TCA (final concentration, 10% TCA) then incubated for 60 min. at 4 °C. The plates are washed five times with tap water after getting rid of the supernatant and allowed to dry in air. Sulforhodamine B (SRB) solution (100 μL) at 0.4% w/v in 1% acetic

CNS Cancer cell lines = test: as above; conditions: for SI: full-panel MG-MID / subpanel MG-MID, CNS Cancer; for MG-MID: mean activity across subpanel CNS Cancer
Excerpt: as §1, §2, §3, §4, §5, §6

Melanoma cell lines = test: as above; conditions: for SI: full-panel MG-MID / subpanel MG-MID, Melanoma; for MG-MID: mean activity across subpanel Melanoma
Excerpt: as §1, §2, §3, §4, §5, §6

[4] = test system: Ovarian Cancer cell lines; test: as above; conditions: for SI: full-panel MG-MID / subpanel MG-MID, Ovarian Cancer; for MG-MID: mean activity across subpanel Ovarian Cancer
Excerpt: as §1, §2
(§7) At the National Cancer Institute (NCI) in Bethesda, USA, researchers examined the anticancer potential of the target compounds under investigation using nine panels of sixty different cell lines obtained from nine different cancers that were housed in the NCI library. Following the protocols laid out by the National Cancer Institute (https://dctd.cancer.gov/data-tools-biospecimens/data (accessed on 15 March 2023 and 6 January 2024)), the screening procedures were carried out [37]. The anticancer screening was carried out at a single dose of 10^−5 M; the results obtained were expressed as growth inhibition (%).
(§8) The anti-cancer potential of the tested compounds was evaluated at the National cancer institute (NCI), Bethesda, USA, against 9 panels of 60 various cell lines derived from nine human tumours available usually at NCI library. The procedures for the screening were described in details in NCI website (dttp://www.dtp.nci.nih.gov.) and were done according to NCI protocols. The anticancer screening was carried out at single dose of 10^-5 M. The results obtained as growth inhibition (%).
as §5, §6

Renal Cancer cell lines = test: as above; conditions: full-panel MG-MID / subpanel MG-MID
Excerpt: as §1, §2, §7
The anti-cancer potential of the tested compounds was evaluated at the National cancer institute (NCI), Bethesda, USA, against 9 panels of 60 various cell lines derived from nine human tumours available usually at NCI library. The procedures for the screening were described in details in NCI website (dttp://www.dtp.nci.nih.gov.) and were done according to NCI protocols. […]

[5] = test system: Prostate Cancer cell lines; test: as above; conditions: for SI: full-panel MG-MID / subpanel MG-MID, PC (prostate); for MG-MID: mean activity across subpanel PC (prostate)
Excerpt: as §1, §2, §7, §8, §5, §6

Breast Cancer cell lines = test: as above; conditions: for SI: full-panel MG-MID / subpanel MG-MID, Breast Cancer; for MG-MID: mean activity across subpanel Breast Cancer
Excerpt: as §1, §2, §7, §8, §5, §6

[6] = test system: colon HCT116 cancer cell line; test: Cell cycle analysis, propidium iodide flow cytometry; conditions: for Cell cycle arrest phase: HCT116; for DNA Content G2/M Phase / DNA Content S Phase / DNA Content G0-G1 Phase: HCT116 treated with IC50 concentration; for DNA Content G2/M Phase: DMSO 8.68%; for DNA Content S Phase: DMSO 27.03%; for DNA Content G0-G1 Phase: DMSO 64.29%
Procedure: The effect of compounds 4b and 4d on the cell cycle progression of the colon HCT-116 cell line was evaluated using a Propidium Iodide Flow Cytometry Kit to measure the DNA content, as per the reported protocols [39].
Cell cycle analysis and measurement of apoptotic potential
The effect of compound 4b and 4d on cell cycle progression of colon HCT-116 cell line was evaluated using Propidium Iodide Flow Cytometry Kit to measure the DNA content according to the reported protocols. The HCT116 cells used in this work were obtained from the American Type Culture Collection. Cells were cultured in DMEM (Invitrogen/Life Technologies) supplemented with 10% FBS (Hyclone), 10 µg/ml insulin (Sigma), and 1% penicillin-streptomycin. The remaining chemicals and reagents were all from Sigma or Invitrogen. Growth media was removed, cells washed with warm PBS and aspirated. Adhered cells were detached from media by addition of 5 ml 10% trypsin/EDTA and incubated 2 minutes in the incubator. The suspended cells harvested, aspirated to a falcon tube, centrifuged at 2000 rpm for 5 minutes. Cell count performed after suspending the cells into a fresh media and stained with trypan blue, counted and used for preparation of the appropriate number of cells.

[7] = test system: Leukemia cancer cell lines; test: NCI five-dose testing, subpanel (GI50 range, MID b, selectivity); conditions: for GI50: Homo sapiens; for SI: full-panel MG-MID / subpanel MG-MID, Leukemia; for MG-MID: mean activity across subpanel Leukemia
Excerpt: as §1, §2, §3, §4, §5, §6

Topoisomerase I = target: T1, Topoisomerase I (Homo sapiens, UniProt P11387); test: Topoisomerase I inhibition assay (ELISA kit of human DNA topoisomerase); conditions: for TOPO I fld (fold of control): HCT116, control = 1; for Topoisomerase I % Inhibition: in comparison to negative control
T1 sequence (P11387 1-765): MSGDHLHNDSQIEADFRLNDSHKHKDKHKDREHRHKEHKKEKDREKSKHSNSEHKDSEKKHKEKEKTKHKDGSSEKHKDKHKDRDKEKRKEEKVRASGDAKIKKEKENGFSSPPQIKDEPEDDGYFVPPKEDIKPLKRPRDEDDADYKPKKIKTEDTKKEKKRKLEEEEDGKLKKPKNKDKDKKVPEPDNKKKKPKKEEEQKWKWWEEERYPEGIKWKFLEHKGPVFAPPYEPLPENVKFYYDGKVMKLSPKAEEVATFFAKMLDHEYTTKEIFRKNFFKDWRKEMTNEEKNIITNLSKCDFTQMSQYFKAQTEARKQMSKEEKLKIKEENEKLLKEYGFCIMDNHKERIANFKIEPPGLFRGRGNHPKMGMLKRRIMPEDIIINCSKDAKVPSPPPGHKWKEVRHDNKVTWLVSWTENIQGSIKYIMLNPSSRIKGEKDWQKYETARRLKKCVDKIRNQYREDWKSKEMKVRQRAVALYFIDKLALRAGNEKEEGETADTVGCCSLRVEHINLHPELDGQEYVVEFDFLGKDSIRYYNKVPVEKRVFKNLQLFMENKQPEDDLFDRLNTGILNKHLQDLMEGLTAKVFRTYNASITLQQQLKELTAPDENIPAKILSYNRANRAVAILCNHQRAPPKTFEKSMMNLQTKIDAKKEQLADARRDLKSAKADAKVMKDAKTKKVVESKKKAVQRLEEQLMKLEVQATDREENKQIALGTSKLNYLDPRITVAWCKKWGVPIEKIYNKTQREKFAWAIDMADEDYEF
Procedure: The assay was performed using a commercially available Topoisomerase I Drug Screening Kit (TopoGen, Inc., Cat. # TG1015-1, Buena Vista, CO, USA) according to the manufacturer’s instructions, with minor modifications.
Evaluation of Topoisomerase I/II inhibition
Two folds of serial dilution was accomplished after standards and the tested compounds were dissolved in sample diluent.
Horseradish peroxidase (HRP-avidin) and biotin-conjugated antibody were diluted 10 times each.
Each well received 100 μL of each concentration of the standard or test chemicals, which were then added and incubated at 37 °C for 60 min. After each well's liquid had been carefully removed,
incubated for 1 h at 37 °C. The microtiter plate was rinsed three times and given room to aspirate.
After that, the plate was incubated at 37 °C for 60 min with 100 μL of HRP-avidin solution added to each well. After that, the plate was aspirated and cleaned 5 times. Each well received 90 μL of TMB substrate, and the plate was incubated for 30 min. at 37 °C in a light-protected environment.
Finally, stop solution (50 μL) was loaded, and within 5 minutes, the absorbance at 450 nm was measured spectrophotometrically.

topoisomerase IIβ = topoisomerase IIβ (Homo sapiens, UniProt Q02880); test: Topoisomerase II inhibition assay (ELISA kit of human DNA topoisomerase); conditions: for TOPO II fld (fold of control): HCT116, control = 1; for Topoisomerase II % Inhibition: in comparison to negative control
Bax = test: Relative gene expression by qRT-PCR in HCT-116; type: cell-based, human; conditions: HCT116; untreated control = 1
caspase-3 = test: Relative gene expression by qRT-PCR in HCT-116; type: cell-based, human; conditions: HCT116; untreated control = 1
caspase-9 = test: Relative gene expression by qRT-PCR in HCT-116; type: cell-based, human; conditions: HCT116; untreated control = 1

topoisomerase IIβ, sequence (Q02880 2-1626): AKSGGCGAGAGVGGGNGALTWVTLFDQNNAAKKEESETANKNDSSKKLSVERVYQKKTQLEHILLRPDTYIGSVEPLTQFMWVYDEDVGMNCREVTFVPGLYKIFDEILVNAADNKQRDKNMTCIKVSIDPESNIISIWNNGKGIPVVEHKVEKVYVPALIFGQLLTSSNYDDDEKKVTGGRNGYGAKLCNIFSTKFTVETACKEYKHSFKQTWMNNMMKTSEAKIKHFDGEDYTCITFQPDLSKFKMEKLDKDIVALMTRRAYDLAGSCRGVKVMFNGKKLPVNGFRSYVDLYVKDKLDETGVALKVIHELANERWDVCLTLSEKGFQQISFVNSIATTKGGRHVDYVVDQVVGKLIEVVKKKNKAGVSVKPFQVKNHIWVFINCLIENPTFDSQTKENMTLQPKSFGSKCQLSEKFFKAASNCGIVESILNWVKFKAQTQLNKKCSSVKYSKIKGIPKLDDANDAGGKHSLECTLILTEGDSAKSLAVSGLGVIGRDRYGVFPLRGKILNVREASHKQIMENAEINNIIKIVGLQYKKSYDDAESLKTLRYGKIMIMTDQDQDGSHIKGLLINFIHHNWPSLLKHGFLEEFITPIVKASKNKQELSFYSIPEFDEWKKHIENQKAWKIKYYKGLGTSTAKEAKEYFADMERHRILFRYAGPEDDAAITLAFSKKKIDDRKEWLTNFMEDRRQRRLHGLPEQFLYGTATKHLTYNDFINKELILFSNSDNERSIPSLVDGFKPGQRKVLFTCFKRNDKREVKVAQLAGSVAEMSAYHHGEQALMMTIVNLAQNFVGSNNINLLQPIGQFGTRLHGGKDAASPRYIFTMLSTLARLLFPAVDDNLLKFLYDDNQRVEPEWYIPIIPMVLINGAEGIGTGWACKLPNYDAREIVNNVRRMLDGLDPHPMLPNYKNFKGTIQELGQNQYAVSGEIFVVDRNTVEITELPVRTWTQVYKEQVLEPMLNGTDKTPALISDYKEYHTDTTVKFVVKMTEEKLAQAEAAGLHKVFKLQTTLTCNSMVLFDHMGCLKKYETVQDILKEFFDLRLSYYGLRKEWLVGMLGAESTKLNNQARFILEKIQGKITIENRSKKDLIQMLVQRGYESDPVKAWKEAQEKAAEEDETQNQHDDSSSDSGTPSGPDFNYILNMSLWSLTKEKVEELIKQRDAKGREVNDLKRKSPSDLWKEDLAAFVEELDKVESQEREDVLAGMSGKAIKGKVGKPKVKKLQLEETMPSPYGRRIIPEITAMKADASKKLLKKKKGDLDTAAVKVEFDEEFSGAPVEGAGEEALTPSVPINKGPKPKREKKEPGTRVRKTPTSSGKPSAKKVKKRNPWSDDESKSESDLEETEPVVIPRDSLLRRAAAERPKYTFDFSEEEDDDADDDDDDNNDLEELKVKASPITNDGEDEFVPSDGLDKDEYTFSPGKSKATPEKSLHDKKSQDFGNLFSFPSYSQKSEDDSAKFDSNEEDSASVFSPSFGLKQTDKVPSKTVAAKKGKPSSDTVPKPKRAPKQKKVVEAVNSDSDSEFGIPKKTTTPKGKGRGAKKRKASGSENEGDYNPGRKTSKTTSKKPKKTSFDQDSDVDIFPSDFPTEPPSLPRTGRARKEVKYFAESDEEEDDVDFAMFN

Question: With `Cc1nc(SCC(=O)N2CCN(c3cc4c(cc3F)c(=O)c(C(=O)O)cn4C3CC3)CC2)sc1C(=O)/C=C/c1cccc(Cl)c1` [Compound 4b, (E)-7-(4-(2-((5-(3-(3-Chlorophenyl)acryloyl)-4-methylthiazol-2-yl)thio)acetyl)piperazin-1-yl)-1-cyclopropyl-6-fluoro-4-oxo-1,4-dihydroquinoline-3-carboxylic Acid] as the compound, how does the IC50 [1] read?
Answer: 0.3 to 3.7 µM

Question: And the viability at 0.4 µM [2]?
Answer: 82.8%

Question: What about the viability at 1.6 µM [2] of the same compound?
Answer: 71.8%

Question: And the viability at 6.3 µM [2]?
Answer: 63.5%

Question: What about the viability at 25 µM [2] of the same compound?
Answer: 52.9%

Question: What about the viability at 100 µM [2] of the same compound?
Answer: 37.1%

Question: What about the IC50 [2] of the same compound?
Answer: 26.8 ± 0.92 µM

Question: What about the “Apoptosis Late” value (colon HCT116 cells) of the same compound?
Answer: 22.37%

Question: And the “Apoptosis Early” value (colon HCT116 cells)?
Answer: 6.96%

Question: What about the “Apoptosis Total” value (colon HCT116 cells) of the same compound?
Answer: 29.33%

Question: What about the Necrosis (colon HCT116 cells) of the same compound?
Answer: 3.66%

Question: And the TGI (UO-31)?
Answer: 100.0 µM

Question: What about the GI50 (UO-31) of the same compound?
Answer: > 100 µM

Question: What about the IC50 (UO-31) of the same compound?
Answer: > 100 µM

Question: And the LC50 (concentration killing 50% of cells) (UO-31)?
Answer: > 100 µM

Question: What about the SI [3] of the same compound?
Answer: 0.73

Question: What about the MG-MID [3] of the same compound?
Answer: 96.35 µM

Question: And the SI (CNS Cancer cell lines)?
Answer: 1.01

Question: What about the MG-MID (CNS Cancer cell lines) of the same compound?
Answer: 69.63 µM

Question: And the SI (Melanoma cell lines)?
Answer: 0.95

Question: What about the MG-MID (Melanoma cell lines) of the same compound?
Answer: 74.08 µM

Question: And the SI [4]?
Answer: 0.77

Question: And the MG-MID [4]?
Answer: 91.67 µM

Question: What about the SI (Renal Cancer cell lines) of the same compound?
Answer: 1.5

Question: What about the SI [5] of the same compound?
Answer: 0.70

Question: What about the MG-MID [5] of the same compound?
Answer: 100.0 µM

Question: And the SI (Breast Cancer cell lines)?
Answer: 1.04

Question: What about the MG-MID (Breast Cancer cell lines) of the same compound?
Answer: 67.8 µM

Question: And the “Cell cycle arrest phase” value [6]?
Answer: G1 phase

Question: And the “DNA Content G2/M Phase” value [6]?
Answer: 2.92%

Question: What about the “DNA Content S Phase” value [6] of the same compound?
Answer: 23.23%

Question: What about the “DNA Content G0-G1 Phase” value [6] of the same compound?
Answer: 73.85%

Question: What about the GI50 [7] of the same compound?
Answer: 0.2 to 12.9 µM

Question: And the SI [7]?
Answer: 9.22

Question: And the MG-MID [7]?
Answer: 7.62 µM

Question: And the “TOPO I fld (fold of control)” value (Topoisomerase I)?
Answer: 0.227

Question: What about the “Topoisomerase I % Inhibition” value (Topoisomerase I) of the same compound?
Answer: 77.3%

Question: What about the “TOPO II fld (fold of control)” value (topoisomerase IIβ) of the same compound?
Answer: 0.266

Question: What about the “Topoisomerase II % Inhibition” value (topoisomerase IIβ) of the same compound?
Answer: 73.4%

Question: Which results are given for `Cc1nc(SCC(=O)N2CCN(c3cc4c(cc3F)c(=O)c(C(=O)O)cn4C3CC3)CC2)sc1C(=O)/C=C/c1cccc(F)c1` [Compound 4d, (E)-1-Cyclopropyl-6-fluoro-7-(4-(2-((5-(3-(3-fluorophenyl)acryloyl)-4-methylthiazol-2-yl)thio)acetyl)piperazin-1-yl)-4-oxo-1,4-dihydroquinoline-3-carboxylic Acid]?
Answer: IC50 [1]: 0.3 to 3.7 µM; viability at 0.4 µM [2]: 83.4%; viability at 1.6 µM [2]: 72.8%; viability at 6.3 µM [2]: 64.1%; viability at 25 µM [2]: 52.9%; viability at 100 µM [2]: 44%; IC50 [2]: 41.2 ± 1.42 µM; Apoptosis Late (colon HCT116 cells): 26.29%; Apoptosis Early (colon HCT116 cells): 11.92%; Apoptosis Total (colon HCT116 cells): 38.21%; Necrosis (colon HCT116 cells): 3.82%; Relative gene expression of Bax (Bax): 5.58 fold and 5.577 fold; Relative gene expression of caspase-3 (caspase-3): 10.86 fold; Relative gene expression of caspase-9 (caspase-9): 4.2 fold and 4.214 fold; TGI (UO-31): 100.0 µM; GI50 (UO-31): > 100 µM; IC50 (UO-31): > 100 µM; LC50 (concentration killing 50% of cells) (UO-31): > 100 µM; SI [3]: 0.81; MG-MID [3]: 86.5 µM; SI (CNS Cancer cell lines): 0.97; MG-MID (CNS Cancer cell lines): 72.0 µM; SI (Melanoma cell lines): 0.89; MG-MID (Melanoma cell lines): 79.00 µM; SI [4]: 0.70; MG-MID [4]: 100 µM; SI (Renal Cancer cell lines): 1.5; SI [5]: 0.70; MG-MID [5]: 100.0 µM; SI (Breast Cancer cell lines): 0.99; MG-MID (Breast Cancer cell lines): 71.1 µM; Cell cycle arrest phase [6]: G1 phase; DNA Content G2/M Phase [6]: 3.75%; DNA Content S Phase [6]: 18.33%; DNA Content G0-G1 Phase [6]: 77.92%; GI50 [7]: 0.19 to 3.39 µM; SI [7]: 24.6; MG-MID [7]: 2.9 µM; TOPO I fld (fold of control) (Topoisomerase I): 0.277; Topoisomerase I % Inhibition (Topoisomerase I): 72.3%; TOPO II fld (fold of control) (topoisomerase IIβ): 0.481; Topoisomerase II % Inhibition (topoisomerase IIβ): 51.9%
